Assay results taken from PubChem BioAssay (NCI).
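GI50 marks 50% less growth. At the TGI there is no net growth.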

Key:
Test in all cases: inhibition of tumour cell growth, NCI panel, 384-well format
SF-295 CNS = test system: SF-295 CNS
SK-MEL-5 melanoma = test system: SK-MEL-5 melanoma
NCI-H226 lung = test system: NCI-H226 lung
NCI-H522 lung = test system: NCI-H522 lung
DU-145 prostate = test system: DU-145 prostate
SR leukemia = test system: SR leukemia
UACC-62 melanoma = test system: UACC-62 melanoma
NCI-H322M lung = test system: NCI-H322M lung
CAKI-1 renal = test system: CAKI-1 renal
NCI-H23 lung = test system: NCI-H23 lung
HS 578T breast = test system: HS 578T breast
A549 NSCLC = test system: A549 NSCLC
NCI-H460 NSCLC = test system: NCI-H460 NSCLC
TK-10 renal = test system: TK-10 renal
SK-MEL-28 melanoma = test system: SK-MEL-28 melanoma
RXF 393 renal = test system: RXF 393 renal
MDA-MB-468 breast = test system: MDA-MB-468 breast
SW-620 colon = test system: SW-620 colon
MOLT-4 leukemia = test system: MOLT-4 leukemia
CCRF-CEM leukemia = test system: CCRF-CEM leukemia
EKVX NSCLC = test system: EKVX NSCLC
SK-OV-3 ovarian = test system: SK-OV-3 ovarian
PC-3 prostate = test system: PC-3 prostate
KM12 colon = test system: KM12 colon
HCT-116 colon = test system: HCT-116 colon
SNB-19 CNS = test system: SNB-19 CNS
BT-549 breast = test system: BT-549 breast
K-562 leukemia = test system: K-562 leukemia
OVCAR-4 ovarian = test system: OVCAR-4 ovarian
M14 melanoma = test system: M14 melanoma
HCT-15 colon = test system: HCT-15 colon
NCI/ADR-RES ovarian = test system: NCI/ADR-RES ovarian
HL-60(TB) leukemia = test system: HL-60(TB) leukemia
HOP-62 NSCLC = test system: HOP-62 NSCLC
T-47D breast = test system: T-47D breast
OVCAR-8 ovarian = test system: OVCAR-8 ovarian
SF-539 CNS = test system: SF-539 CNS
UO-31 renal = test system: UO-31 renal
OVCAR-3 ovarian = test system: OVCAR-3 ovarian
786-0 renal = test system: 786-0 renal
IGROV1 ovarian = test system: IGROV1 ovarian
RPMI-8226 leukemia = test system: RPMI-8226 leukemia
SF-268 CNS = test system: SF-268 CNS
MDA-MB-435 melanoma = test system: MDA-MB-435 melanoma
SNB-75 CNS = test system: SNB-75 CNS
A498 renal = test system: A498 renal
COLO 205 colon = test system: COLO 205 colon
HCC-2998 colon = test system: HCC-2998 colon
U251 glioblastoma = test system: U251 glioblastoma
MCF7 breast = test system: MCF7 breast
LOX IMVI melanoma = test system: LOX IMVI melanoma
UACC-257 melanoma = test system: UACC-257 melanoma
HOP-92 NSCLC = test system: HOP-92 NSCLC
ACHN renal = test system: ACHN renal
SN12C renal = test system: SN12C renal
HT29 colon = test system: HT29 colon
MDA-MB-231 breast = test system: MDA-MB-231 breast
MALME-3M melanoma = test system: MALME-3M melanoma

Structure (SMILES): Cc1ccccc1C(C(=O)NC1CCCCC1)N(C(=O)Cn1ccnc1C)c1cccc(F)c1 (stereo unspecified)
- GI50 (SF-295 CNS): 30 µM
- TGI (SF-295 CNS): > 100 µM
- GI50 (SK-MEL-5 melanoma): > 100 µM
- TGI (SK-MEL-5 melanoma): > 100 µM
- GI50 (NCI-H226 lung): > 100 µM
- TGI (NCI-H226 lung): > 100 µM
- GI50 (NCI-H522 lung): > 100 µM
- TGI (NCI-H522 lung): > 100 µM
- GI50 (DU-145 prostate): > 100 µM
- TGI (DU-145 prostate): > 100 µM
- GI50 (SR leukemia): 20 µM
- TGI (SR leukemia): 86.6 µM
- GI50 (UACC-62 melanoma): > 100 µM
- TGI (UACC-62 melanoma): > 100 µM
- GI50 (NCI-H322M lung): > 100 µM
- TGI (NCI-H322M lung): > 100 µM
- GI50 (CAKI-1 renal): > 100 µM
- TGI (CAKI-1 renal): > 100 µM
- GI50 (NCI-H23 lung): > 100 µM
- TGI (NCI-H23 lung): > 100 µM
- GI50 (HS 578T breast): 27.4 µM
- TGI (HS 578T breast): 83 µM
- GI50 (A549 NSCLC): > 100 µM
- TGI (A549 NSCLC): > 100 µM
- GI50 (NCI-H460 NSCLC): > 100 µM
- TGI (NCI-H460 NSCLC): > 100 µM
- GI50 (TK-10 renal): 49.2 µM
- TGI (TK-10 renal): > 100 µM
- GI50 (SK-MEL-28 melanoma): > 100 µM
- TGI (SK-MEL-28 melanoma): > 100 µM
- GI50 (RXF 393 renal): 20.5 µM
- TGI (RXF 393 renal): 96.6 µM
- GI50 (MDA-MB-468 breast): > 100 µM
- TGI (MDA-MB-468 breast): > 100 µM
- GI50 (SW-620 colon): > 100 µM
- TGI (SW-620 colon): > 100 µM
- GI50 (MOLT-4 leukemia): > 100 µM
- TGI (MOLT-4 leukemia): > 100 µM
- GI50 (CCRF-CEM leukemia): > 100 µM
- TGI (CCRF-CEM leukemia): > 100 µM
- GI50 (EKVX NSCLC): > 100 µM
- TGI (EKVX NSCLC): > 100 µM
- GI50 (SK-OV-3 ovarian): > 100 µM
- TGI (SK-OV-3 ovarian): > 100 µM
- GI50 (PC-3 prostate): > 100 µM
- TGI (PC-3 prostate): > 100 µM
- GI50 (KM12 colon): > 100 µM
- TGI (KM12 colon): > 100 µM
- GI50 (HCT-116 colon): > 100 µM
- TGI (HCT-116 colon): > 100 µM
- GI50 (SNB-19 CNS): > 100 µM
- TGI (SNB-19 CNS): > 100 µM
- GI50 (BT-549 breast): > 100 µM
- TGI (BT-549 breast): > 100 µM
- GI50 (K-562 leukemia): > 100 µM
- TGI (K-562 leukemia): > 100 µM
- GI50 (OVCAR-4 ovarian): > 100 µM
- TGI (OVCAR-4 ovarian): > 100 µM
- GI50 (M14 melanoma): > 100 µM
- TGI (M14 melanoma): > 100 µM
- GI50 (HCT-15 colon): > 100 µM
- TGI (HCT-15 colon): > 100 µM
- GI50 (NCI/ADR-RES ovarian): > 100 µM
- TGI (NCI/ADR-RES ovarian): > 100 µM
- GI50 (HL-60(TB) leukemia): > 100 µM
- TGI (HL-60(TB) leukemia): > 100 µM
- GI50 (HOP-62 NSCLC): > 100 µM
- TGI (HOP-62 NSCLC): > 100 µM
- GI50 (T-47D breast): 24.5 µM
- TGI (T-47D breast): > 100 µM
- GI50 (OVCAR-8 ovarian): 75.6 µM
- TGI (OVCAR-8 ovarian): > 100 µM
- GI50 (SF-539 CNS): 36.2 µM
- TGI (SF-539 CNS): > 100 µM
- GI50 (UO-31 renal): > 100 µM
- TGI (UO-31 renal): > 100 µM
- GI50 (OVCAR-3 ovarian): > 100 µM
- TGI (OVCAR-3 ovarian): > 100 µM
- GI50 ([…]-0 renal): > 100 µM
- TGI (786-0 renal): > 100 µM
- GI50 (IGROV1 ovarian): > 100 µM
- TGI (IGROV1 ovarian): > 100 µM
- GI50 (RPMI-8226 leukemia): > 100 µM
- TGI (RPMI-8226 leukemia): > 100 µM
- GI50 (SF-268 CNS): > 100 µM
- TGI (SF-268 CNS): > 100 µM
- GI50 (MDA-MB-435 melanoma): > 100 µM
- TGI (MDA-MB-435 melanoma): > 100 µM
- GI50 (SNB-75 CNS): 26.8 µM
- TGI (SNB-75 CNS): > 100 µM
- GI50 (A498 renal): 66.6 µM
- TGI (A498 renal): > 100 µM
- GI50 (COLO 205 colon): > 100 µM
- TGI (COLO 205 colon): > 100 µM
- GI50 (HCC-2998 colon): > 100 µM
- TGI (HCC-2998 colon): > 100 µM
- GI50 (U251 glioblastoma): > 100 µM
- TGI (U251 glioblastoma): > 100 µM
- GI50 (MCF7 breast): > 100 µM
- TGI (MCF7 breast): > 100 µM
- GI50 (LOX IMVI melanoma): 52.7 µM
- TGI (LOX IMVI melanoma): > 100 µM
- GI50 (UACC-257 melanoma): > 100 µM
- TGI (UACC-257 melanoma): > 100 µM
- GI50 (HOP-92 NSCLC): 77.4 µM
- TGI (HOP-92 NSCLC): > 100 µM
- GI50 (ACHN renal): > 100 µM
- TGI (ACHN renal): > 100 µM
- GI50 (SN12C renal): > 100 µM
- TGI (SN12C renal): > 100 µM
- GI50 (HT29 colon): > 100 µM
- TGI (HT29 colon): > 100 µM
- GI50 (MDA-MB-231 breast): 51.1 µM
- TGI (MDA-MB-231 breast): > 100 µM
- GI50 (MALME-3M melanoma): > 100 µM
- TGI (MALME-3M melanoma): > 100 µM
